From US7357916B2, “Method for creating a uniform vascular wound in zebrafish or zebrafish larva” (priority 2002, dated 2008)
Read-outs that look alike come from different tables or passages of the source.

Key:
zebrafish larvae [1] = assay: Vascular occlusion by laser irradiation, time to occlusion (TTO); type: in vivo; conditions: normal TTO 17±5.0 seconds; for Time to occlusion (TTO), laser irradiation assays: embryos microinjected with morpholino, screened at 3 dpf
Procedure: For laser irradiation treatment, 1 to 5 larvae (3 mm) were placed in 250 μL of water and anesthetized with 10 μl of Tricaine solution (300 μmol/L, Sigma, MO). 250 μL of 1% low-melting agarose solution (at 40° C.) were added to the anesthetized larvae and each larva, along with approximately 100 μL of agarose solution, was positioned inside a viewing well that was formed by placing a plastic ring on a glass microscope slide. Before treatment, water was allowed to soak into the agarose blocks to wash out the anesthetic. Pulsed nitrogen laser light pumped through coumarin 440 dye (445 nm) (MicroPoint Laser system, Photonic Instruments Inc, IL) at seven pulses/second was delivered to larvae for five seconds through a 10× objective on a Nikon Optiphot microscope. The progress of occlusion was recorded using a Nikon CoolPix 995 CCD camera.
Larvae at 2 and 3 dpf were treated with warfarin as described (Hanumanthaiah et al., 2001, specifically incorporated herein by reference) for 24 hours. Larvae were rinsed in water and tested with either chemical or laser methods of vessel injury. Morpholinos (Discovery Genomics Inc.) were designed against 5′-UTR around the translational start site of zebrafish factor VII (Sheehan et al., 2001, specifically incorporated herein by reference or factor VIIi (Hanumanthaiah et al., 2002, specifically incorporated herein by reference). Sequences were as follows:
For each morpholino a working solution (2 mg/mL) was prepared as previously described (Nasevicius & Ekker, 2000, specifically incorporated herein by reference). Embryos were generated by in vitro fertilization as described (Westerfield, 2000, specifically incorporated herein by reference) and 9 nL of either morpholino solution were injected into the yolk of embryos at the single to four cell stages. Control embryos were microinjected with an equal volume of PBS. Embryos were maintained at 28° C. and screened at 3 dpf.

zebrafish larvae [2] = test system: zebrafish larvae
Procedure: (§1) For screening studies, larvae at three to five days postfertilization (dpf) were placed in 500 μL of water and an equal volume of phenylhydrazine (40 mmol/L phenylhydrazine HCl (PHZ), Sigma, MO) or FeCl3 (40 mmol/L) solution was added. Each larva, along with 9 μL of solution, was placed in a 3 mm×1 mm×3 mm well of an acrylic viewing chamber (narrow wells limited the motion of larvae for better viewing). For recording purposes, larvae were also immobilized in agarose, as described below, and 100 μl of either FeCl3 or PHZ were layered on top of the agarose block. Vascular occlusion was recorded using an inverted Olympus microscope equipped with a Javelin MOS solid-state camera (Japan) connected to a VHS recorder.

zebrafish larvae [3] = assay: Vascular occlusion with phenylhydrazine, time to occlusion (TTO); type: in vivo
Procedure: as §1

erythrocytes = assay: Annexin V binding, flow cytometry of blood cells from treated adult zebrafish; type: in vivo; conditions: 5 mmol/L for five minutes, FITC annexin V
Procedure: Adult zebrafish were placed in a 500 mL solution of phenylhydrazine (5 mmol/L phenylhydrazine HCl, pH 7.2 in 20 mmol/L Tris) or FeCl3 (5 mmol/L) for five minutes and then rinsed with de-ionized water. Two μL of blood were collected, as described (Jagadeeswaran et al., 2000a, specifically incorporated herein by reference), from control or treated zebrafish and blood cells were isolated by centrifugation of the blood sample at 800 g for two minutes, followed by removal of the supernatant. The cell pellet was washed once with 200 μL of PBS, centrifuged and resuspended in 200 μL of binding buffer (ApoAlert; Clontech, Calif.) followed by addition of 5 μL of FITC conjugated Annexin-V (Clontech, Calif.). Samples were incubated for ten minutes in dark at 25° C. and visualized ulsing a 20× UplanApo objective on an Olympus FV500 confocal microscope or processed by flow cytometry (Gregory & Jagadeeswaran, 2002).

[4] = larvae treated with warfarin for 24 hours

Question: Which “Time to occlusion (TTO), laser irradiation assays” value (zebrafish larvae [1]) does the source give for “5′-CAAGCAGCAGACTC ATATTTACTGC-3′ (SEQ ID NO:1) (antisense CAAGCAGCAGACTCATATTTACTGC; all phosphorodiamidate morpholino (PMO)) [FVIIas]” here?
Answer: 55 ± 9 s

Question: “5′-GTCACTGACCTCAGCCTGTTCACAA-3′ (SEQ ID NO:2) (morpholino, further chemistry not given here) [FVIIias]” was tested. Which “Time to occlusion (TTO), laser irradiation assays” value (zebrafish larvae [1]) did it give?
Answer: 9 ± 3 s

Question: For `[Cl][Fe]([Cl])[Cl]` [FeCl3, ferric chloride], which “Time to occlusion (TTO) induced by the agent, mean±standard deviation” value (zebrafish larvae [2]; wild type larvae at three dpf, n=1000) is on record?
Answer: 6 ± 2 min

Question: How did the “Time to occlusion (TTO), FeCl3 injury” value (zebrafish larvae [2]; larvae treated with warfarin for 24 hours, normal TTO 6±2 minutes) turn out when `CC(=O)CC(c1ccccc1)c1c(O)c2ccccc2oc1=O` (centres unmarked) [Warfarin, warfarin] was run?
Answer: > 10 min

Question: And the “Time to occlusion (TTO), laser irradiation injury” value (zebrafish larvae [1]; [4])?
Answer: > 1 min

Question: What about the “Effect on TTO in phenylhydrazine induced vascular occlusion” value (zebrafish larvae [3]; [4]) of the same compound?
Answer: did not affect TTO

Question: How did the “Time to occlusion (TTO) induced by the agent, mean±standard deviation” value (zebrafish larvae [3]; wild type larvae at four dpf, n=500) turn out when `Cl.NNc1ccccc1` [phenylhydrazine, phenylhydrazine HCl] was run?
Answer: 10 ± 2.5 min

Question: And the “Erythrocytes exhibiting externalization of PS” value (erythrocytes)?
Answer: approximately 18%
